The results in this text go back to patent publication US20080058324A1, “Alpha-Keto Carbonyl Calpain Inhibitors” (SANTHERA PHARMACEUTICALS (SCHWEIZ) AG, priority 2004, published 2008).

One assay concerns the target T1, human μ-calpain (Homo sapiens, UniProt P07384).
T1 construct: purchased Calbiochem
T1 sequence (P07384 1-714): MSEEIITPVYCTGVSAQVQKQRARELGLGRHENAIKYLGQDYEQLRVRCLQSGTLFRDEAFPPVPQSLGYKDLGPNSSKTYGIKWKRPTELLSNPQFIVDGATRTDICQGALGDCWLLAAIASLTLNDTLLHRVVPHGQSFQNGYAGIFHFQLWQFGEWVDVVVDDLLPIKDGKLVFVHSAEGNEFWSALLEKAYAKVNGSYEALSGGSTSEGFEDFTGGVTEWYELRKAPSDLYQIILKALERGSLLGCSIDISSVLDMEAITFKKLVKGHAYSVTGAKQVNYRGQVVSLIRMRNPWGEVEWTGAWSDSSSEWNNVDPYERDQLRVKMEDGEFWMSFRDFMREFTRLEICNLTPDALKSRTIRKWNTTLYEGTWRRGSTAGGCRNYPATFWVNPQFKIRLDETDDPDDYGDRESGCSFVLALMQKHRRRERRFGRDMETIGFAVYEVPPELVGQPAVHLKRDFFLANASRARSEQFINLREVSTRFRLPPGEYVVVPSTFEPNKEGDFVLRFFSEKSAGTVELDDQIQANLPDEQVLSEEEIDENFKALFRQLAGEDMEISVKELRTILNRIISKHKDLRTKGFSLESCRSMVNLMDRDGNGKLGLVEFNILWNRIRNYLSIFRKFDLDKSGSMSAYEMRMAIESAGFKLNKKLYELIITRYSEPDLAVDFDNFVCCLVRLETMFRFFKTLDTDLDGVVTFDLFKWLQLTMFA
T1 sequence (P04632 1-268 partner): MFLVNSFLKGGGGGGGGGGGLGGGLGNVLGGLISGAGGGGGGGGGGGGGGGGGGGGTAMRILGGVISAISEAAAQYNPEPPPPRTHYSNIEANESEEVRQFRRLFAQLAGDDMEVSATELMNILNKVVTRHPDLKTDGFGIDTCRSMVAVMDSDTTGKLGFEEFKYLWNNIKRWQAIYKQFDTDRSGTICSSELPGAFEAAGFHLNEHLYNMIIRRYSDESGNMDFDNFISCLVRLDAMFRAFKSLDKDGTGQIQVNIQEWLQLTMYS
The assay can be described thus: Enzymatic Calpain Inhibition Assay. Format: biochemical. The settings on record: read-out: Calp I IC50. On the procedure:
The Ki value was also determined in some cases. These criteria were used to measure the inhibitory effect of the compounds (I) on calpain I, calpain II and cathepsin B.
The inhibitory properties of calpain inhibitors are tested in 100 μl of a buffer containing 100 mM imidazole pH 7.5, 5 mM L-Cystein-HCl, 5 mM CaCl2, 250 μM of the calpain fluorogenic substrate Suc-Leu-Tyr-AMC (Sigma) (Sasaki et al., J. Biol. Chem., 1984, 259, 12489-12949) dissolved in 2.5 μl DMSO and 0.5 μg of human μ-calpain (Calbiochem). The inhibitors dissolved in 1 μl DMSO are added to the reaction buffer. The fluorescence of the cleavage product 7-amino-4-methylcoumarin (AMC) is followed in a SPECTRAmax GEMINI XS (Molecular Device) fluorimeter at λex=360 nm and λem=440 nm at 30° C. during 30 min at intervals of 30 sec in 96-well plates (Greiner). The initial reaction velocity at different inhibitor concentrations is plotted against the inhibitor concentration and the IC50 values determined graphically.

Assay [1] relates to Primary fibroblasts from donors with Friedreich Ataxia (FRDA). The assay can be described thus: BSO Assay (cell viability of Friedreich Ataxia fibroblasts under BSO oxidative stress). Format: cell-based. The note with it: Homo sapiens, Fibroblast. On the procedure:
Primary fibroblasts were derived from donors with molecular diagnosis for Friedreich Ataxia (FRDA) and control donors with no mitochondrial disease. Cell lines were obtained from Coriell Cell Repositories (Camden, N.J.; catalog numbers GM04078, GM08402 and GM08399 respectively). All cell types were diagnosed on the molecular level for intronic GAA triplet repeat length of at least 400-450 repeats using a PCR-based method. Experiments were carried out as described in the literature (M. L. Jauslin et al., Human Mol. Genet., 2002, 11, 3055-3063): Cells were seeded in microtiter plates at a density of 4′000 cells per 100 μl in growth medium consisting of 25% (v/v) M199 EBS and 64% (v/v) MEM EBS without phenol red (Bioconcept, Allschwil, Switzerland) supplemented with 10% (v/v) fetal calf serum (PAA Laboratories, Linz, Austria), 100 U/ml penicillin, 100 μg/ml streptomycin (PAA Laboratories, Linz, Austria), 10 μg/ml insulin (Sigma, Buchs, Switzerland), 10 ng/ml EGF (Sigma, Buchs, Switzerland), 10 ng/ml bFGF (PreproTech, Rocky Hill, N.J.) and 2 mM glutamine (Sigma, Buchs, Switzerland). The cells were incubated in the presence of various test compounds for 24 h before addition of L-buthionine-(S,R)-sulfoximine (BSO) to a final concentration of 1 mM. Cell viability was measured after the first signs of toxicity appeared in the BSO-treated controls (typically after 16 to 48 h). The cells were stained for 60 min at room temperature in PBS with 1.2 μM calceinAM and 4 μM ethidium homodimer (Live/Dead assay, Molecular Probes, Eugene, Oreg.). Fluorescence intensity was measured with a Gemini Spectramax XS spectrofluorimeter (Molecular Devices, Sunnyvale, Calif.) using excitation and emission wavelengths of 485 nm and 525 nm respectively.

In assay [2] the test system is cellular calpains in C2C12 myoblasts. The assay can be described thus: Calpain Inhibition Assay in C2C12 Myoblasts. Format: cell-based. The note with it: read-out: Calp I IC50 Myoblast. On the procedure: This assay is aimed at monitoring the ability of the substance to inhibit cellular calpains. C2C12 myoblasts are grown in 96-well plates in growth medium (DMEM, 20% foetal calf serum) until they reach confluency. The growth medium is then replaced by fusion medium (DMEM, 5% horse serum). 24 hours later the fusion medium is replaced by fusion medium containing the test substances dissolved in 1 μl DMSO. After 2 hours of incubation at 37° C. the cells are loaded with the calpain fluorogenic substrate Suc-Leu-Tyr-AMC at 400 μM in 50 μl of a reaction buffer containing 135 mM NaCl; 5 mM KCl; 4 mM CaCl2; 1 mM MgCl2; 10 mM Glucose; 10 mM HEPES pH 7.25 for 20 min at room temperature. The calcium influx, necessary to activate the cellular calpains, is evoked by the addition of 50 μl reaction buffer containing 20 μM of the calcium ionophore Br-A-23187 (Molecular Probes). The fluorescence of the cleavage product AMC is measured as described above during 60 min at 37° C. at intervals of 1 min. The IC50 values are determined as described above. Comparison of the IC50 determined in the enzymatic calpain inhibition assay to the IC50 determined in the C2C12 myoblasts calpain inhibiton assay, allows to evaluate the cellular uptake or the membrane permeability of the substance.

In general, IC50 refers to the concentration at which inhibition is half-maximal. For orientation: EC50 means the concentration that produces a half-maximal response. High values mean a less potent agent, low ones a more potent agent. For the compound `CCNC(=O)C(=O)C(Cc1ccc(OC)cc1)NC(=O)C(NC(=O)C(CCc1ccccc1)NC(=O)CCc1cccs1)C(C)C` (stereo not drawn) [Example 520], the half-maximal inhibitory concentration (IC50) amounted to 15 nM on human μ-calpain and 10 nM in assay [2]. The compound further showed a concentration giving a half-maximal response (EC50) in assay [1] of under 1 nM.

As for `CCNC(=O)C(=O)[C@H](Cc1ccc(Cl)cc1)NC(=O)[C@@H](NC(=O)[C@H](Cc1ccccc1)NC(=O)CCCCc1cccs1)C(C)C` [Example 1], the results for the IC50 (on human μ-calpain; in assay [2]) were 45 nM and 50 nM, respectively. The compound also gave a 50% effective concentration (EC50) in assay [1] of 700 nM.

As for `CCNC(=O)C(=O)C(Cc1ccc(Cl)cc1)NC(=O)C(NC(=O)C(Cc1cccc2ccccc12)NC(=O)CCCCc1cccs1)C(C)C` (stereo not drawn) [Example 22], the IC50 amounted to 300 nM at human μ-calpain and 150 nM in assay [2]. For the same compound, a half-maximal effect in assay [1] (EC50) was put at 10 nM.
